Test results reported in patent US20050014706A1, “Method of treating tuberculosis” (priority 2003, published 2005).
In brackets after ≈: the same amount, converted by molar mass.

Tested on: M. tuberculosis H37Rv
Experiment: MIC vs. M. tuberculosis H37Rv, microplate Alamar Blue assay (MABA)
Format: cell-based
Conditions: Table 3, parallel-synthesis carbazate library products

| SMILES | MIC |
| --- | --- |
| CC[C@H]1OC(=O)[C@H](C)[C@@H](O[C@H]2CC(C)(OC)[C@@H](O)[C@H](C)O2)[C@H](C)[C@@H](O[C@@H]2O[C@H](C)C[C@H](N(C)C)[C@H]2O)[C@](C)(OC)C[C@@H](C)C(=O)[C@H](C)[C@H]2N(NCCCc3ccccc3)C(=O)O[C@]12C (stereo partly shown) [A2′] | 10 µM (≈ 9.06 µg/mL) |
| CC[C@H]1OC(=O)[C@H](C)[C@@H](O[C@H]2CC(C)(OC)[C@@H](O)[C@H](C)O2)[C@H](C)[C@@H](O[C@@H]2O[C@H](C)C[C@H](N(C)C)[C@H]2O)[C@](C)(OC)C[C@@H](C)C(=O)[C@H](C)[C@H]2N(NC/C=C/c3ccccc3)C(=O)O[C@]12C (stereo partly shown) [A4′] | 7 µM (≈ 6.33 µg/mL) |
| CC[C@H]1OC(=O)[C@H](C)[C@@H](O[C@H]2CC(C)(OC)[C@@H](O)[C@H](C)O2)[C@H](C)[C@@H](O[C@@H]2O[C@H](C)C[C@H](N(C)C)[C@H]2O)[C@](C)(OC)C[C@@H](C)C(=O)[C@H](C)[C@H]2N(NC/C=C/c3cc(OC)c(O)c(OC)c3)C(=O)O[C@]12C (stereo partly shown) [A6′] | 10.2 µM (≈ 10 µg/mL) |
| CC[C@H]1OC(=O)[C@H](C)[C@@H](O[C@H]2CC(C)(OC)[C@@H](O)[C@H](C)O2)[C@H](C)[C@@H](O[C@@H]2O[C@H](C)C[C@H](N(C)C)[C@H]2O)[C@](C)(OC)C[C@@H](C)C(=O)[C@H](C)[C@H]2N(NCc3ccc([N+](=O)[O-])o3)C(=O)O[C@]12C (stereo partly shown) [A8′] | >9 µM |
| CC[C@H]1OC(=O)[C@H](C)[C@@H](O[C@H]2CC(C)(OC)[C@@H](O)[C@H](C)O2)[C@H](C)[C@@H](O[C@@H]2O[C@H](C)C[C@H](N(C)C)[C@H]2O)[C@](C)(OC)C[C@@H](C)C(=O)[C@H](C)[C@H]2N(NCc3ccoc3)C(=O)O[C@]12C (stereo partly shown) [A10′] | >7 µM |
| CC[C@H]1OC(=O)[C@H](C)[C@@H](O[C@H]2CC(C)(OC)[C@@H](O)[C@H](C)O2)[C@H](C)[C@@H](O[C@@H]2O[C@H](C)C[C@H](N(C)C)[C@H]2O)[C@](C)(OC)C[C@@H](C)C(=O)[C@H](C)[C@H]2N(NCc3cc(C(=O)OC)c(C)o3)C(=O)O[C@]12C (stereo partly shown) [A12′] | >12 µM |
| CCOC(=O)c1cc(-c2ccc(Cl)cc2)oc1CNN1C(=O)O[C@]2(C)[C@@H](CC)OC(=O)[C@H](C)[C@@H](O[C@H]3CC(C)(OC)[C@@H](O)[C@H](C)O3)[C@H](C)[C@@H](O[C@@H]3O[C@H](C)C[C@H](N(C)C)[C@H]3O)[C@](C)(OC)C[C@@H](C)C(=O)[C@H](C)[C@@H]12 (stereo partly shown) [B1′] | >18 µM |
| CC[C@H]1OC(=O)[C@H](C)[C@@H](O[C@H]2CC(C)(OC)[C@@H](O)[C@H](C)O2)[C@H](C)[C@@H](O[C@@H]2O[C@H](C)C[C@H](N(C)C)[C@H]2O)[C@](C)(OC)C[C@@H](C)C(=O)[C@H](C)[C@H]2N(NCc3nccn3C)C(=O)O[C@]12C (stereo partly shown) [B3′] | >18 µM |
| CC[C@H]1OC(=O)[C@H](C)[C@@H](O[C@H]2CC(C)(OC)[C@@H](O)[C@H](C)O2)[C@H](C)[C@@H](O[C@@H]2O[C@H](C)C[C@H](N(C)C)[C@H]2O)[C@](C)(OC)C[C@@H](C)C(=O)[C@H](C)[C@H]2N(NCc3cncn3C)C(=O)O[C@]12C (stereo partly shown) [B5′] | >27 µM |
| CCCCc1nc(CNN2C(=O)O[C@]3(C)[C@@H](CC)OC(=O)[C@H](C)[C@@H](O[C@H]4CC(C)(OC)[C@@H](O)[C@H](C)O4)[C@H](C)[C@@H](O[C@@H]4O[C@H](C)C[C@H](N(C)C)[C@H]4O)[C@](C)(OC)C[C@@H](C)C(=O)[C@H](C)[C@@H]23)c(Cl)[nH]1 (stereo partly shown) [B7′] | >19 µM |
| CC[C@H]1OC(=O)[C@H](C)[C@@H](O[C@H]2CC(C)(OC)[C@@H](O)[C@H](C)O2)[C@H](C)[C@@H](O[C@@H]2O[C@H](C)C[C@H](N(C)C)[C@H]2O)[C@](C)(OC)C[C@@H](C)C(=O)[C@H](C)[C@H]2N(NCc3c(C)[nH]c4ccc([N+](=O)[O-])cc34)C(=O)O[C@]12C (stereo partly shown) [B11′] | >22 µM |
| CC[C@H]1OC(=O)[C@H](C)[C@@H](O[C@H]2CC(C)(OC)[C@@H](O)[C@H](C)O2)[C@H](C)[C@@H](O[C@@H]2O[C@H](C)C[C@H](N(C)C)[C@H]2O)[C@](C)(OC)C[C@@H](C)C(=O)[C@H](C)[C@H]2N(NCc3cn(Cc4ccccc4)c4ccccc34)C(=O)O[C@]12C (stereo partly shown) [C2′] | 7 µM (≈ 7.05 µg/mL) |
| CC[C@H]1OC(=O)[C@H](C)[C@@H](O[C@H]2CC(C)(OC)[C@@H](O)[C@H](C)O2)[C@H](C)[C@@H](O[C@@H]2O[C@H](C)C[C@H](N(C)C)[C@H]2O)[C@](C)(OC)C[C@@H](C)C(=O)[C@H](C)[C@H]2N(NCc3cn(S(=O)(=O)c4ccc(C)cc4)c4ccccc34)C(=O)O[C@]12C (stereo partly shown) [C4′] | 11 µM (≈ 11.8 µg/mL) |
| CC[C@H]1OC(=O)[C@H](C)[C@@H](O[C@H]2CC(C)(OC)[C@@H](O)[C@H](C)O2)[C@H](C)[C@@H](O[C@@H]2O[C@H](C)C[C@H](N(C)C)[C@H]2O)[C@](C)(OC)C[C@@H](C)C(=O)[C@H](C)[C@H]2N(NCc3c(C)noc3C)C(=O)O[C@]12C (stereo partly shown) [C6′] | >17 µM |
| CC[C@H]1OC(=O)[C@H](C)[C@@H](O[C@H]2CC(C)(OC)[C@@H](O)[C@H](C)O2)[C@H](C)[C@@H](O[C@@H]2O[C@H](C)C[C@H](N(C)C)[C@H]2O)[C@](C)(OC)C[C@@H](C)C(=O)[C@H](C)[C@H]2N(/N=C/c3cc(-c4cccs4)on3)C(=O)O[C@]12C (stereo partly shown) [C8′] | ?9 μM |
| CC[C@H]1OC(=O)[C@H](C)[C@@H](O[C@H]2CC(C)(OC)[C@@H](O)[C@H](C)O2)[C@H](C)[C@@H](O[C@@H]2O[C@H](C)C[C@H](N(C)C)[C@H]2O)[C@](C)(OC)C[C@@H](C)C(=O)[C@H](C)[C@H]2N(NCc3c(-c4ccccc4)noc3C)C(=O)O[C@]12C (stereo partly shown) [C10′] | 12 µM (≈ 11.5 µg/mL) |

| SMILES | MIC |
| --- | --- |
| CC[C@H]1OC(=O)[C@H](C)[C@@H](O[C@H]2CC(C)(OC)[C@@H](O)[C@H](C)O2)[C@H](C)[C@@H](O[C@@H]2O[C@H](C)C[C@H](N(C)C)[C@H]2O)[C@](C)(OC)C[C@@H](C)C(=O)[C@H](C)[C@H]2N(/N=C/c3c(C)noc3-c3ccccc3)C(=O)O[C@]12C (stereo partly shown) [C12′] | 9 µM (≈ 8.61 µg/mL) |
| CC[C@H]1OC(=O)[C@H](C)[C@@H](O[C@H]2CC(C)(OC)[C@@H](O)[C@H](C)O2)[C@H](C)[C@@H](O[C@@H]2O[C@H](C)C[C@H](N(C)C)[C@H]2O)[C@](C)(OC)C[C@@H](C)C(=O)[C@H](C)[C@H]2N(NCc3[nH]ncc3Br)C(=O)O[C@]12C (stereo partly shown) [D1′] | 23 µM (≈ 21.8 µg/mL) |
| CC[C@H]1OC(=O)[C@H](C)[C@@H](O[C@H]2CC(C)(OC)[C@@H](O)[C@H](C)O2)[C@H](C)[C@@H](O[C@@H]2O[C@H](C)C[C@H](N(C)C)[C@H]2O)[C@](C)(OC)C[C@@H](C)C(=O)[C@H](C)[C@H]2N(NCc3c(C(F)(F)F)nn(C)c3Cl)C(=O)O[C@]12C (stereo partly shown) [D3′] | 20 µM (≈ 19.7 µg/mL) |
| CC[C@H]1OC(=O)[C@H](C)[C@@H](O[C@H]2CC(C)(OC)[C@@H](O)[C@H](C)O2)[C@H](C)[C@@H](O[C@@H]2O[C@H](C)C[C@H](N(C)C)[C@H]2O)[C@](C)(OC)C[C@@H](C)C(=O)[C@H](C)[C@H]2N(NCc3c[nH]nc3-c3ccc(F)cc3)C(=O)O[C@]12C (stereo partly shown) [D5′] | 25 µM (≈ 24.1 µg/mL) |
| CC[C@H]1OC(=O)[C@H](C)[C@@H](O[C@H]2CC(C)(OC)[C@@H](O)[C@H](C)O2)[C@H](C)[C@@H](O[C@@H]2O[C@H](C)C[C@H](N(C)C)[C@H]2O)[C@](C)(OC)C[C@@H](C)C(=O)[C@H](C)[C@H]2N(NCc3cnn(-c4ccc(F)cc4)c3C)C(=O)O[C@]12C (stereo partly shown) [D7′] | 13 µM (≈ 12.7 µg/mL) |
| CC[C@H]1OC(=O)[C@H](C)[C@@H](O[C@H]2CC(C)(OC)[C@@H](O)[C@H](C)O2)[C@H](C)[C@@H](O[C@@H]2O[C@H](C)C[C@H](N(C)C)[C@H]2O)[C@](C)(OC)C[C@@H](C)C(=O)[C@H](C)[C@H]2N(NCc3cccnc3)C(=O)O[C@]12C (stereo partly shown) [D9′] | >15 µM |
| CC[C@H]1OC(=O)[C@H](C)[C@@H](O[C@H]2CC(C)(OC)[C@@H](O)[C@H](C)O2)[C@H](C)[C@@H](O[C@@H]2O[C@H](C)C[C@H](N(C)C)[C@H]2O)[C@](C)(OC)C[C@@H](C)C(=O)[C@H](C)[C@H]2N(NCc3ccnc4ccccc34)C(=O)O[C@]12C (stereo partly shown) [D11′] | 16 µM (≈ 14.9 µg/mL) |
| CC[C@H]1OC(=O)[C@H](C)[C@@H](O[C@H]2CC(C)(OC)[C@@H](O)[C@H](C)O2)[C@H](C)[C@@H](O[C@@H]2O[C@H](C)C[C@H](N(C)C)[C@H]2O)[C@](C)(OC)C[C@@H](C)C(=O)[C@H](C)[C@H]2N(NCc3cnccc3NC(=O)C(C)(C)C)C(=O)O[C@]12C (stereo partly shown) [E2′] | >27 µM |
| CC[C@H]1OC(=O)[C@H](C)[C@@H](O[C@H]2CC(C)(OC)[C@@H](O)[C@H](C)O2)[C@H](C)[C@@H](O[C@@H]2O[C@H](C)C[C@H](N(C)C)[C@H]2O)[C@](C)(OC)C[C@@H](C)C(=O)[C@H](C)[C@H]2N(NCc3cccnc3NC(=O)C(C)(C)C)C(=O)O[C@]12C (stereo partly shown) [E4′] | >27 µM |
| CC[C@H]1OC(=O)[C@H](C)[C@@H](O[C@H]2CC(C)(OC)[C@@H](O)[C@H](C)O2)[C@H](C)[C@@H](O[C@@H]2O[C@H](C)C[C@H](N(C)C)[C@H]2O)[C@](C)(OC)C[C@@H](C)C(=O)[C@H](C)[C@H]2N(/N=C/c3cnc(-c4ccccc4)nc3C)C(=O)O[C@]12C (stereo partly shown) [E6′] | 5 µM (≈ 4.84 µg/mL) |
| CC[C@H]1OC(=O)[C@H](C)[C@@H](O[C@H]2CC(C)(OC)[C@@H](O)[C@H](C)O2)[C@H](C)[C@@H](O[C@@H]2O[C@H](C)C[C@H](N(C)C)[C@H]2O)[C@](C)(OC)C[C@@H](C)C(=O)[C@H](C)[C@H]2N(NCc3c[nH]c(=O)[nH]c3=O)C(=O)O[C@]12C (stereo partly shown) [E8′] | >20 µM |
| CC[C@H]1OC(=O)[C@H](C)[C@@H](O[C@H]2CC(C)(OC)[C@@H](O)[C@H](C)O2)[C@H](C)[C@@H](O[C@@H]2O[C@H](C)C[C@H](N(C)C)[C@H]2O)[C@](C)(OC)C[C@@H](C)C(=O)[C@H](C)[C@H]2N(NCc3cccn3CCC#N)C(=O)O[C@]12C (stereo partly shown) [E10′] | 20 µM (≈ 18.4 µg/mL) |
| CC[C@H]1OC(=O)[C@H](C)[C@@H](O[C@H]2CC(C)(OC)[C@@H](O)[C@H](C)O2)[C@H](C)[C@@H](O[C@@H]2O[C@H](C)C[C@H](N(C)C)[C@H]2O)[C@](C)(OC)C[C@@H](C)C(=O)[C@H](C)[C@H]2N(NCc3cccn3-c3ccc(Cl)cc3)C(=O)O[C@]12C (stereo partly shown) [E12′] | 3.4 µM (≈ 3.32 µg/mL) |
| CC[C@H]1OC(=O)[C@H](C)[C@@H](O[C@H]2CC(C)(OC)[C@@H](O)[C@H](C)O2)[C@H](C)[C@@H](O[C@@H]2O[C@H](C)C[C@H](N(C)C)[C@H]2O)[C@](C)(OC)C[C@@H](C)C(=O)[C@H](C)[C@H]2N(NCc3cccn3-c3ccc(C(F)(F)F)cc3)C(=O)O[C@]12C (stereo partly shown) [F1′] | 17.6 µM (≈ 17.8 µg/mL) |
| CC[C@H]1OC(=O)[C@H](C)[C@@H](O[C@H]2CC(C)(OC)[C@@H](O)[C@H](C)O2)[C@H](C)[C@@H](O[C@@H]2O[C@H](C)C[C@H](N(C)C)[C@H]2O)[C@](C)(OC)C[C@@H](C)C(=O)[C@H](C)[C@H]2N(NCc3sc(C)nc3C)C(=O)O[C@]12C (stereo partly shown) [F5′] | >19 µM |
